Toxic doses and inconclusive results are not listed. No stated cut-off is given here; in the data, active means T/C of 150% or more; inactive means T/C below 125%.
System: L1210 leukemia ip in BDF1 mice, survival T/C
Test: NCI In Vivo Anticancer Drug Screen. Data for tumor model L1210 Leukemia (intraperitoneal) in B6D2F1 (BDF1) mice
Conditions: endpoint: mean survival time, higher = longer survival
Outline: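 Value reflects the ratio of survival in compound-treated mice to survival in vehicle-treated controls, with both groups carrying the same transplanted tumor.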

[1] = dose: 50.0 mg/kg/injection, schedule: Q01DX001 (ip), vehicle: carboxymethylcellulose (CMC)
[2] = dose: 100.0 mg/kg/injection, schedule: Q01DX001 (ip), vehicle: carboxymethylcellulose (CMC)
[3] = dose: 200.0 mg/kg/injection, schedule: Q01DX001 (ip), vehicle: carboxymethylcellulose (CMC)
[4] = dose: 400.0 mg/kg/injection, schedule: Q01DX001 (ip), vehicle: carboxymethylcellulose (CMC)
[5] = dose: 50.0 mg/kg/injection, schedule: Q01DX009 (ip), vehicle: saline with Tween-80
[6] = dose: 100.0 mg/kg/injection, schedule: Q01DX009 (ip), vehicle: saline with Tween-80
[7] = dose: 100.0 mg/kg/injection, schedule: Q04DX003 (ip), vehicle: saline with Tween-80
[8] = dose: 200.0 mg/kg/injection, schedule: Q01DX009 (ip), vehicle: saline with Tween-80
[9] = dose: 200.0 mg/kg/injection, schedule: Q04DX003 (ip), vehicle: saline with Tween-80
[10] = dose: 100.0 mg/kg/injection, schedule: Q01DX009 (ip), vehicle: saline
[11] = dose: 200.0 mg/kg/injection, schedule: Q01DX009 (ip), vehicle: saline
[12] = dose: 100.0 mg/kg/injection, schedule: Q04DX002 (ip), vehicle: Klucel (hydroxypropylcellulose) (HPC)
[13] = dose: 200.0 mg/kg/injection, schedule: Q04DX002 (ip), vehicle: Klucel (hydroxypropylcellulose) (HPC)
[14] = dose: 400.0 mg/kg/injection, schedule: Q04DX002 (ip), vehicle: Klucel (hydroxypropylcellulose) (HPC)
[15] = dose: 100.0 mg/kg/injection, schedule: Q01DX009 (ip), vehicle: Klucel (hydroxypropylcellulose) (HPC)
[16] = dose: 200.0 mg/kg/injection, schedule: Q01DX009 (ip), vehicle: Klucel (hydroxypropylcellulose) (HPC)
[17] = dose: 50.0 mg/kg/injection, schedule: Q01DX009 (ip), vehicle: Klucel (hydroxypropylcellulose) (HPC)
[18] = dose: 100.0 mg/kg/injection, schedule: Q04DX003 (ip), vehicle: Klucel (hydroxypropylcellulose) (HPC)
[19] = dose: 200.0 mg/kg/injection, schedule: Q04DX003 (ip), vehicle: Klucel (hydroxypropylcellulose) (HPC)

Measured: T/C

N#CN1CC(C(=O)N2CCCCC2)C=C2c3cccc4[nH]cc(c34)CC21 (stereo not given)
inactive: dose: 4.0 mg/kg/injection, schedule: Q04DX003 (ip), vehicle: saline 96 % of control | dose: 6.25 mg/kg/injection, schedule: Q04DX003 (ip), vehicle: saline 119 % of control | dose: 8.0 mg/kg/injection, schedule: Q04DX003 (ip), vehicle: saline 95 % of control | dose: 12.5 mg/kg/injection, schedule: Q04DX003 (ip), vehicle: saline 118 % of control | dose: 16.0 mg/kg/injection, schedule: Q04DX003 (ip), vehicle: saline 86 % of control | dose: 25.0 mg/kg/injection, schedule: Q04DX003 (ip), vehicle: saline 115 % of control | dose: 50.0 mg/kg/injection, schedule: Q04DX003 (ip), vehicle: saline 90 % of control

ON=C(CCl)CCl
inactive: dose: 6.25 mg/kg/injection, schedule: Q01DX009 (ip), vehicle: saline 89 % of control | dose: 12.5 mg/kg/injection, schedule: Q01DX001 (ip), vehicle: saline 113 % of control | dose: 25.0 mg/kg/injection, schedule: Q01DX001 (ip), vehicle: saline 98 % of control

O=C(O)c1c[nH]c2c(C(F)(F)F)cccc2c1=O
inactive: [1] 88 % of control | [2] 98 % of control | [3] 88 % of control | [4] 90 % of control

C=CCc1cccc(O)c1O
inactive: dose: 12.5 mg/kg/injection, schedule: Q04DX002 (ip), vehicle: saline with Tween-80 108 % of control | dose: 25.0 mg/kg/injection, schedule: Q04DX002 (ip), vehicle: saline with Tween-80 96 % of control | dose: 50.0 mg/kg/injection, schedule: Q04DX002 (ip), vehicle: saline with Tween-80 108 % of control

O=C(CCCC(=O)NNC(=S)Nc1ccccc1)NNC(=S)Nc1ccccc1
inactive: dose: 50.0 mg/kg/injection, schedule: Q01DX001 (ip), vehicle: saline 100 % of control | dose: 100.0 mg/kg/injection, schedule: Q01DX001 (ip), vehicle: saline 100 % of control | dose: 200.0 mg/kg/injection, schedule: Q01DX001 (ip), vehicle: saline 97 % of control | dose: 400.0 mg/kg/injection, schedule: Q01DX001 (ip), vehicle: saline 100 % of control

CCCC(C)(O)C#CC(C)(O)CCC (stereo not given)
inactive: [5] 97 % of control | [6] 95 % of control | [7] 100 % of control | [8] 97 % of control | [9] 95 % of control

Nc1nc2c(c(-c3ccccc3)n1)CN(c1ccc(Br)cc1)C2=O
inactive: dose: 50.0 mg/kg/injection, schedule: Q01DX009 (ip), vehicle: saline 95 % of control | [10] 92 % of control | dose: 100.0 mg/kg/injection, schedule: Q04DX003 (ip), vehicle: saline 90 % of control | [11] 92 % of control | dose: 200.0 mg/kg/injection, schedule: Q04DX003 (ip), vehicle: saline 95 % of control | dose: 400.0 mg/kg/injection, schedule: Q04DX003 (ip), vehicle: saline 90 % of control

CCn1c(C)nc2cc(N=Cc3ccc(N(CCCl)CCCl)cc3C)ccc21
inactive: dose: 87.5 mg/kg/injection, schedule: Q04DX002 (ip), vehicle: Klucel (hydroxypropylcellulose) (HPC) 102 % of control | [12] 95 % of control | dose: 175.0 mg/kg/injection, schedule: Q04DX002 (ip), vehicle: Klucel (hydroxypropylcellulose) (HPC) 102 % of control | [13] 102 % of control | dose: 350.0 mg/kg/injection, schedule: Q04DX002 (ip), vehicle: Klucel (hydroxypropylcellulose) (HPC) 98 % of control | [14] 102 % of control

CCCc1c(N)nc(N)nc1C(=O)O
inactive: dose: 100.0 mg/kg/injection, schedule: Q01DX001 (ip), vehicle: Klucel (hydroxypropylcellulose) (HPC) 94 % of control | [15] 100 % of control | dose: 200.0 mg/kg/injection, schedule: Q01DX001 (ip), vehicle: Klucel (hydroxypropylcellulose) (HPC) 94 % of control | [16] 109 % of control | dose: 400.0 mg/kg/injection, schedule: Q01DX001 (ip), vehicle: Klucel (hydroxypropylcellulose) (HPC) 92 % of control | dose: 400.0 mg/kg/injection, schedule: Q01DX009 (ip), vehicle: Klucel (hydroxypropylcellulose) (HPC) 86 % of control

O=C1CCC2c3ccccc3C(=O)C2C1 (stereo not given)
inactive: [17] 100 % of control | [15] 100 % of control | [16] 98 % of control

Brc1ncc2ccccc2c1Br
inactive: [18] 108 % of control | [19] 94 % of control

O=C(O)c1cc(Br)c(Br)s1
inactive: [5] 98 % of control | [6] 105 % of control

COc1ccc(OCC(=O)N2CCCC2)cc1
inactive: [12] 103 % of control | [13] 96 % of control | [14] 96 % of control

Cc1ccc(NC(=O)Sc2ccc(Cl)cc2)c([N+](=O)[O-])c1
inactive: [17] 109 % of control | [15] 98 % of control | [18] 102 % of control | [16] 106 % of control | [19] 104 % of control | dose: 400.0 mg/kg/injection, schedule: Q04DX003 (ip), vehicle: Klucel (hydroxypropylcellulose) (HPC) 109 % of control

Clc1ccc(C2=Nc3c(Cl)ncnc3SC2)cc1
inactive: dose: 100.0 mg/kg/injection, schedule: Q01DX001 (ip), vehicle: saline with Tween-80 106 % of control | [6] 94 % of control | dose: 200.0 mg/kg/injection, schedule: Q01DX001 (ip), vehicle: saline with Tween-80 101 % of control | [8] 99 % of control | dose: 400.0 mg/kg/injection, schedule: Q01DX001 (ip), vehicle: saline with Tween-80 98 % of control | dose: 400.0 mg/kg/injection, schedule: Q01DX009 (ip), vehicle: saline with Tween-80 94 % of control

ClCCCCOCBr
inactive: [5] 97 % of control | [6] 104 % of control | [8] 95 % of control

Cc1ccc(C(=O)CCC(=O)O)c(C)c1
inactive: [7] 100 % of control | [9] 98 % of control | dose: 400.0 mg/kg/injection, schedule: Q04DX003 (ip), vehicle: saline with Tween-80 98 % of control

Cc1ccc(NC(=O)NCCCCl)cc1
inactive: [1] 98 % of control | [2] 110 % of control | [3] 98 % of control | [4] 106 % of control

COc1cc(Cl)ccc1NC(=O)Oc1ccc(NC(C)=O)cc1
inactive: [10] 110 % of control | [11] 92 % of control | dose: 400.0 mg/kg/injection, schedule: Q01DX009 (ip), vehicle: saline 103 % of control

CC1(C)N=C(N)N=C(N)N1c1cccc(OCc2cccc(N)c2)c1
inactive: dose: 5.0 mg/kg/injection, schedule: Q01DX001 (ip), vehicle: saline 98 % of control | dose: 10.0 mg/kg/injection, schedule: Q01DX001 (ip), vehicle: saline 101 % of control | dose: 20.0 mg/kg/injection, schedule: Q01DX001 (ip), vehicle: saline 96 % of control | dose: 40.0 mg/kg/injection, schedule: Q01DX001 (ip), vehicle: saline 93 % of control | dose: 80.0 mg/kg/injection, schedule: Q01DX001 (ip), vehicle: saline 113 % of control

NC1=CCNC(=O)N1c1ccccc1
inactive: dose: 100.0 mg/kg/injection, schedule: Q01DX Z (ip), vehicle: methylcellulose (MC) 105 % of control

From PubChem BioAssay AID248 (DTP/NCI, 2004)
